Results as given in ChEMBL document CHEMBL3102801, “Synthesis and antiproliferative activity of new derivatives containing the polycyclic system 5,7:7,13-dimethanopyrazolo[3,4-b]pyrazolo[3',4':2,3]azepino[4,5-f]azocine” (Eur J Med Chem, 2014).

Legend:
T47D = experiment: Growth inhibition of human T47D cells after 48 hrs by sulforhodamine B assay; assay type: functional
[1] = Growth inhibition of human OVCAR5 cells after 48 hrs by sulforhodamine B assay; assay type: functional; conditions: OVCAR-5, 48 h
UACC-62 = experiment: Growth inhibition of human UACC62 cells after 48 hrs by sulforhodamine B assay; assay type: functional; conditions: UACC-62, 48 h
KM12 = experiment: Growth inhibition of human KM12 cells after 48 hrs by sulforhodamine B assay; assay type: functional; conditions: KM12, 48 h
SK-MEL-5 = experiment: Growth inhibition of human SK-MEL-5 cells after 48 hrs by sulforhodamine B assay; assay type: functional; conditions: SK-MEL-5, 48 h
NCI-H460 = experiment: Growth inhibition of human NCI-H460 cells after 48 hrs by sulforhodamine B assay; assay type: functional; conditions: NCI-H460, 48 h
[2] = Growth inhibition of human UO31 cells after 48 hrs by sulforhodamine B assay; assay type: functional; conditions: UO-31, 48 h
ACHN = experiment: Growth inhibition of human ACHN cells after 48 hrs by sulforhodamine B assay; assay type: functional
COLO 205 = experiment: Growth inhibition of human COLO205 cells after 48 hrs by sulforhodamine B assay; assay type: functional; conditions: COLO 205, 48 h
CAKI-1 = experiment: Growth inhibition of human CAKI-1 cells after 48 hrs by sulforhodamine B assay; assay type: functional; conditions: CAKI-1, 48 h
SF-268 = experiment: Growth inhibition of human SF268 cells after 48 hrs by sulforhodamine B assay; assay type: functional; conditions: SF-268, 48 h
[3] = molecular target: T1, Retinoblastoma-associated protein (Homo sapiens) (UniProt P06400); experiment: Inhibition of pRb p110 phosphorylation in human MDA-MB-231 cells after 48 hrs by Western blotting; assay type: cell-based
T1 sequence (whole entry): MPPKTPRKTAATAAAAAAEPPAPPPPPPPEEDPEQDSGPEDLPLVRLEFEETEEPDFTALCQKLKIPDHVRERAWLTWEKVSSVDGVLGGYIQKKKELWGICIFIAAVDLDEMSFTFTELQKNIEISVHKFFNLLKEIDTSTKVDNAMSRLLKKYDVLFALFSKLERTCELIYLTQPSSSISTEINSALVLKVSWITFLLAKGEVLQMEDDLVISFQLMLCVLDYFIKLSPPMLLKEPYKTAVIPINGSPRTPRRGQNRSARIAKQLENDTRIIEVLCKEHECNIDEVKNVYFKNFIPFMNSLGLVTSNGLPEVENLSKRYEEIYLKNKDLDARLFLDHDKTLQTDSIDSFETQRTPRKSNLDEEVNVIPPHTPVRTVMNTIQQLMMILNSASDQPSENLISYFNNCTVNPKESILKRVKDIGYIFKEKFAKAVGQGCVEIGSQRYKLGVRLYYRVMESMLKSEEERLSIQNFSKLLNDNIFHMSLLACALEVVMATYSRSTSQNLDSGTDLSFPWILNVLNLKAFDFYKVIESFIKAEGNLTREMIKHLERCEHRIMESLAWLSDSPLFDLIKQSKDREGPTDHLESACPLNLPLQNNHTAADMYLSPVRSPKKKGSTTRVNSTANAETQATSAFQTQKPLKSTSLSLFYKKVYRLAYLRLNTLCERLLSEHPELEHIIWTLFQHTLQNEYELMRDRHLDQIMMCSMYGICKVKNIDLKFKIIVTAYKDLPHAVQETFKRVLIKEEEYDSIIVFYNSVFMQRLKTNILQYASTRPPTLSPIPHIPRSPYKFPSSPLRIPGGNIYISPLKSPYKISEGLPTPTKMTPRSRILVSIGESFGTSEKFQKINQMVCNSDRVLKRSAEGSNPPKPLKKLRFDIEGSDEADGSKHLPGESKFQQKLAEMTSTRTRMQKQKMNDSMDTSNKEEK

SNB-19 = experiment: Growth inhibition of human SNB19 cells after 48 hrs by sulforhodamine B assay; assay type: functional; conditions: SNB-19, 48 h
HCT-116 [4] = experiment: Cell cycle arrest in human HCT116 cells assessed as accumulation of sub-G0-G1 phase at 10 uM after 48 hrs using propidium iodide staining by flow cytometric analysis (reference value: 15.2%); assay type: functional
[5] = Therapeutic index, ratio of IC50 for human HeDe cells to IC50 for human HCT116 cells; assay type: cell-based, HCT-116; conditions: HeDe cells versus HCT116 cells, read-out: TI
MDA-MB-231 [6] = experiment: Cell cycle arrest in human MDA-MB-231 cells assessed as accumulation of G2-M phase at 10 uM after 48 hrs using propidium iodide staining by flow cytometric analysis (reference value: 27.5%); assay type: functional
BT-549 = experiment: Growth inhibition of human BT549 cells after 48 hrs by sulforhodamine B assay; assay type: functional; conditions: BT-549, 48 h
PC-3 = experiment: Growth inhibition of human PC3 cells after 48 hrs by sulforhodamine B assay; assay type: functional; conditions: PC-3, 48 h
NCI-H226 = experiment: Growth inhibition of human NCI-H226 cells after 48 hrs by sulforhodamine B assay; assay type: functional; conditions: NCI-H226, 48 h
SN12C = experiment: Growth inhibition of human SN12C cells after 48 hrs by sulforhodamine B assay; assay type: functional
MDA-MB-231 [7] = experiment: Cell cycle arrest in human MDA-MB-231 cells assessed as accumulation of sub-G0-G1 phase at 5 uM after 48 hrs using propidium iodide staining by flow cytometric analysis (reference value: 8.4%); assay type: functional
A498 = experiment: Growth inhibition of human A498 cells after 48 hrs by sulforhodamine B assay; assay type: functional; conditions: A498, 48 h
[8] = Growth inhibition of human NCI-ADR-RES cells after 48 hrs by sulforhodamine B assay; assay type: functional
HCT-116 [9] = experiment: Growth inhibition of human HCT116 cells after 48 hrs by sulforhodamine B assay; assay type: functional; conditions: HCT-116, 48 h
HT-29 = experiment: Growth inhibition of human HT-29 cells after 48 hrs by sulforhodamine B assay; assay type: functional; conditions: HT-29, 48 h
[10] = Growth inhibition of human HOP92 cells after 48 hrs by sulforhodamine B assay; assay type: functional; conditions: HOP-92, 48 h
[11] = Growth inhibition of human HCC2998 cells after 48 hrs by sulforhodamine B assay; assay type: functional; conditions: HCC 2998, 48 h
RPMI-8226 = experiment: Growth inhibition of human RPMI8226 cells after 48 hrs by sulforhodamine B assay; assay type: functional; conditions: RPMI-8226, 48 h
MDA-MB-231 [12] = experiment: Cell cycle arrest in human MDA-MB-231 cells assessed as accumulation of G0-G1 phase at 10 uM after 48 hrs using propidium iodide staining by flow cytometric analysis (reference value: 42.2%); assay type: functional
MDA-MB-231 [13] = experiment: Cell cycle arrest in human MDA-MB-231 cells assessed as accumulation of sub-G0-G1 phase at 10 uM after 48 hrs using propidium iodide staining by flow cytometric analysis (reference value: 8.4%); assay type: functional
HCT-116 [14] = experiment: Cell cycle arrest in human HCT116 cells assessed as accumulation of G2-M phase at 10 uM after 48 hrs using propidium iodide staining by flow cytometric analysis (reference value: 19.2%); assay type: functional
MOLT-4 = experiment: Growth inhibition of human MOLT4 cells after 48 hrs by sulforhodamine B assay; assay type: functional; conditions: MOLT-4, 48 h
TK-10 = experiment: Growth inhibition of human TK10 cells after 48 hrs by sulforhodamine B assay; assay type: functional; conditions: TK-10, 48 h

C=C1c2c(C)nn(-c3ccc(OC)cc3)c2N(C)C23CC1C1(C)c4c(C)nn(-c5ccc(OC)cc5)c4N(C)C(C)(CC12)C3 (stereo not drawn)
GI50 (T47D): 1810 nM | GI50 [1]: 11300 nM | GI50 (UACC-62): 2860 nM | GI50 (KM12): 3750 nM | GI50 (SK-MEL-5): 1730 nM | GI50 (NCI-H460): 2490 nM | GI50 [2]: 2610 nM | GI50 (ACHN): 3300 nM | GI50 (COLO 205): 2200 nM | GI50 (CAKI-1): 2670 nM | GI50 (SF-268): 3630 nM | inhibition [3]: Dose-dependent effect | GI50 (SNB-19): 4340 nM | Activity (HCT-116 [4]): 13.5% | selectivity ratio [5]: 26.9 | Activity (MDA-MB-231 [6]): 17.8% | GI50 (BT-549): 3100 nM | GI50 (PC-3): 1750 nM | GI50 (NCI-H226): 4440 nM | GI50 (SN12C): 3650 nM | Activity (MDA-MB-231 [7]): 11.5% | GI50 (A498): 2470 nM | GI50 [8]: 4040 nM | GI50 (HCT-116 [9]): 2820 nM | GI50 (HT-29): 3240 nM | GI50 [10]: 1180 nM | GI50 [11]: 4070 nM | GI50 (RPMI-8226): 1870 nM | Activity (MDA-MB-231 [12]): 58.2% | Activity (MDA-MB-231 [13]): 4.6% | Activity (HCT-116 [14]): 10.3% | GI50 (MOLT-4): 2600 nM | GI50 (TK-10): 3630 nM
